Experimental data as given in patent publication US9102648B1, “Bioavailable diacylhydrazine ligands for modulating the expression of exogenous genes via an ecdysone receptor complex” (Intrexon Corporation, priority 2003, dated 2015).

Experiments:
[1] = biological target: T1, Bombyx mori EcR (VP16 fusion, CVBE switch construct) (Bombyx mori, UniProt P49881); experiment: Z3 Assay (HEK-293 cells with CVBE and 6XEcRE LacZ, β-galactosidase reporter); conditions: for Fold Induction, Z3 Assay, 3.3 uM: 3.3 uM ligand; for Fold Induction, Z3 Assay, 3.3 uM / Fold Induction, Z3 Assay, 33 uM: ligand treated / DMSO treated cells; for Fold Induction, Z3 Assay, 3.3 uM / Fold Induction, Z3 Assay, 33 uM / EC50: average of two wells; for Fold Induction, Z3 Assay, 33 uM: 33 uM ligand; for Z3 assay Rel Max FI: maximum fold induction at any concentration relative to that of GS-E ligand; for Z3 assay Rel Max FI / EC50: HEK-293 Z3 cells; for EC50: read-out: Z3 assay EC50, β-galactosidase reporter
T1 sequence (P49881 86-606): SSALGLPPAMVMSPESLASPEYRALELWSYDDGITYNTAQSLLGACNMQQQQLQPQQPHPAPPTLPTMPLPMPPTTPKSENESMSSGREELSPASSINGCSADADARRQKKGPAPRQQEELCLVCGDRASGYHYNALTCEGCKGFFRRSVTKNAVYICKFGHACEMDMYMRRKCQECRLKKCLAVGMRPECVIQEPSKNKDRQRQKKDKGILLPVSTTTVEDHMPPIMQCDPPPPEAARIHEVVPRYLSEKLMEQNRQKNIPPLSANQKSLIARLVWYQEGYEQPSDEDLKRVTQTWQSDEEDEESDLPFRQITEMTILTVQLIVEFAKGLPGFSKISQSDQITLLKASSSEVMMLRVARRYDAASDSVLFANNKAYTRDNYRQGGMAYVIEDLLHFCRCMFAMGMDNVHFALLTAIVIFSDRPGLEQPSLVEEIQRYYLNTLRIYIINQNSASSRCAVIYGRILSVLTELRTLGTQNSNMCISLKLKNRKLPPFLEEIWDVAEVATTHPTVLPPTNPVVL
T1 sequence (P19793 1-462 partner): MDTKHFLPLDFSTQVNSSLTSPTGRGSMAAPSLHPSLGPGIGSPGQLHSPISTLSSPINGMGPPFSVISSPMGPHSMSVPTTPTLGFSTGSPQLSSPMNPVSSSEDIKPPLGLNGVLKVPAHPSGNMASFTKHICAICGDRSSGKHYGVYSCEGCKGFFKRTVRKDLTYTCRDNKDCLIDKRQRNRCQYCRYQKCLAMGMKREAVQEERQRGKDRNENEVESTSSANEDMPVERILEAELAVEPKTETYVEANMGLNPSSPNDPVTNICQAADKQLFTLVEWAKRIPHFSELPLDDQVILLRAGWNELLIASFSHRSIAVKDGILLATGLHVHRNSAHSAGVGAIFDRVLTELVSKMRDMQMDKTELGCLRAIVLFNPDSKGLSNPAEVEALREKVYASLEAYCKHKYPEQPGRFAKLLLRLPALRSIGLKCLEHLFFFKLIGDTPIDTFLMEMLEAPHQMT

[2] = biological target: GAL4 DBD-CfEcR(DEF)/VP16AD-MmRXRE (Choristoneura fumiferana, UniProt O77240); experiment: 13B3 Assay (CHO stable cell line, luciferase reporter); conditions: for Fold Induction, 13B3 Assay, 3.3 uM: 3.3 uM ligand; for Fold Induction, 13B3 Assay, 3.3 uM / Fold Induction, 13B3 Assay, 33 uM: RLU ligand treated / RLU DMSO treated cells; for Fold Induction, 13B3 Assay, 3.3 uM / Fold Induction, 13B3 Assay, 33 uM / EC50: average of two wells; for Fold Induction, 13B3 Assay, 33 uM: 33 uM ligand; for 13B3 assay Rel Max FI: maximum fold induction at any concentration relative to that of GS-E ligand, CHO 13B3 cells; for EC50: read-out: 13B3 EC50, CHO 13B3 stable cell line, luciferase reporter, 48 h
Method in brief: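 Ligands dosed at 8 levels from 33 to 0.01 μM (DMSO stocks diluted 300-fold) onto the 13B3 CHO line carrying GAL4-DBD/CfEcR-DEF, VP16/MmRXR-DE and a GAL4-responsive luciferase gene.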

Structure (SMILES)	Fold Induction, Z3 Assay, 3.3 uM [1]	Fold Induction, Z3 Assay, 33 uM [1]	Z3 assay Rel Max FI [1]	EC50 [1]	Fold Induction, 13B3 Assay, 3.3 uM [2]	Fold Induction, 13B3 Assay, 33 uM [2]	13B3 assay Rel Max FI [2]	EC50 [2]
CCc1ccc(C(=O)NN(C(=O)c2cc(C)cc(Cl)c2)C(C)(C)C)cc1 [RG-101774]	631	429	0.943	155 nM	987	526	0.657	327 nM
CCc1ccc(C(=O)NN(C(=O)c2cc(C)cc(C)c2)C(C)C(C)(C)C)cc1 (stereo not drawn) [RG-103451]	67	118	1.054	83 nM	576	661	0.742	208 nM
CCc1ccc(C(=O)NN(C(=O)c2cc(C)c(C)c(Cl)c2)C(C)(C)C)cc1 [RG-101863]	832	374	0.953	257 nM	3187	207	0.837	728 nM
CC(=O)c1cccc(C(=O)NN(C(=O)c2cc(C)cc(C)c2)C(C)(C)C)c1C [RG-100814]	410	1279		1150 nM	423	1151	0.843	37900 nM
COc1ccc(C(=O)NN(C(=O)c2ccc(F)cc2Cl)C(C)(C)C)cc1 [RG-101057]	632	930	0.697	4470 nM	33	842	0.569	4970 nM
COc1ccccc1C(=O)N(NC(=O)c1ccc2c(c1C)OCOC2)C(C)(C)C [RG-100216]		398		1780 nM		8037		
Cc1cc(C)cc(C(=O)N(NC(=O)c2cc3c(cc2Cl)OCO3)C(C)(C)C)c1 [RG-101171]		268		3240 nM		8453		
Cc1cc(C)cc(C(=O)N(NC(=O)c2ccc3c(c2Br)OCCO3)C(C)(C)C)c1 [RG-101340]	866	432	1.126	234 nM	675	879	0.364	106 nM
COc1cccc(C(=O)NN(C(=O)c2cc(C)ccc2Cl)C(C)(C)C)c1Cl [RG-101248]		375		1440 nM		415		
COc1cccc(C(=O)NN(C(=O)c2cc(C)cc(Br)c2)C(C)(C)C)c1C [RG-101353]	530	439	1.078	107 nM	1347	718	1.163	675 nM
Cc1cc(C)cc(C(=O)N(NC(=O)c2ccc3c(c2)COCO3)C(C)(C)C)c1 [RG-101016]		394		2000 nM		4693		
COc1cccc(C(=O)NN(C(=O)c2ccc(Cl)cc2F)C(C)(C)C)c1C [RG-100929]		490		631 nM		359		
Cc1cc(C)cc(C(=O)N(NC(=O)c2cc3c(cc2C)OCO3)C(C)(C)C)c1 [RG-101088]		302		4070 nM		1400		
CCc1ccc(C(=O)NN(C(=O)c2ccccc2[N+](=O)[O-])C(C)(C)C)cc1 [RG-101013]	1039	846	0.720	1480 nM	1084	406	0.539	2260 nM
COc1cccc(C(=O)NN(C(=O)c2cccnc2Cl)C(C)(C)C)c1C [RG-100127]		245		4680 nM		365		
COCc1c(OC)cccc1C(=O)NN(C(=O)c1cc(C)cc(C)c1)C(C)(C)C [RG-115117]	7		0.36	3930 nM	1		0	> 50000 nM
Cc1cc(C)cc(C(=O)N(NC(=O)c2ccc3c(c2)OC(C)O3)C(C)(C)C)c1 (stereo not drawn) [RG-101511]	947	487	1.122	468 nM	1912	744	0.811	794 nM
COc1cc(Cl)ccc1C(=O)N(NC(=O)c1cccc(OC)c1C)C(C)(C)C [RG-100848]	885	26	0.996	240 nM	3391	578	0.666	1640 nM
COc1cc(C(=O)N(NC(=O)c2cccc(OC)c2C)C(C)(C)C)ccc1C [RG-100768]	1246	425	1.129	214 nM		709		
Cc1cc(C)cc(C(=O)N(NC(=O)c2ccc3c(c2)CCCC3)C(C)(C)C)c1 [RG-101887]	1004	334	0.930	257 nM	2462	542	0.579	861 nM
CC(C)(C)N(NC(=O)c1c(F)cccc1F)C(=O)c1cc(Cl)cc(Cl)c1 [RG-100801]		153		891 nM		16		
CCc1c(C(=O)NN(C(=O)c2cc(C)cc(C)c2)C(C)(C)C)ccc2c1OC(C)O2 (stereo not drawn) [RG-101659]	954	876		214 nM	1556	1185	0.867	562 nM
CCc1c(OC)cccc1C(=O)NN(C(=O)c1cc(OC)cc(OC)c1)C(C)(C)C [RG-100778]		365	1.000	513 nM		2344		
COc1cc(C(=O)NN(C(=O)c2cc(C)cc(C)c2)C(C)(C)C)ccc1C [RG-101585]		330		4900 nM		1015		
CCc1c(C(=O)NN(C(=O)c2cccc(C)c2)C(C)(C)C)ccc2c1OCCO2 [RG-101036]	767	404	1.049	54 nM	4582	908	0.545	223 nM
